{"source": "patent US20090233947A1", "about": "“2,3-Substituted fused bicyclic pyrimidin-4(3H)-ones which modulating the function of the vanilloid -1 receptor (VR1)” (priority 2005, published 2009)", "origin": "cited, not measured here", "target": "VR1 (Rattus norvegicus, UniProt O35433)", "sequence (O35433 whole entry)": "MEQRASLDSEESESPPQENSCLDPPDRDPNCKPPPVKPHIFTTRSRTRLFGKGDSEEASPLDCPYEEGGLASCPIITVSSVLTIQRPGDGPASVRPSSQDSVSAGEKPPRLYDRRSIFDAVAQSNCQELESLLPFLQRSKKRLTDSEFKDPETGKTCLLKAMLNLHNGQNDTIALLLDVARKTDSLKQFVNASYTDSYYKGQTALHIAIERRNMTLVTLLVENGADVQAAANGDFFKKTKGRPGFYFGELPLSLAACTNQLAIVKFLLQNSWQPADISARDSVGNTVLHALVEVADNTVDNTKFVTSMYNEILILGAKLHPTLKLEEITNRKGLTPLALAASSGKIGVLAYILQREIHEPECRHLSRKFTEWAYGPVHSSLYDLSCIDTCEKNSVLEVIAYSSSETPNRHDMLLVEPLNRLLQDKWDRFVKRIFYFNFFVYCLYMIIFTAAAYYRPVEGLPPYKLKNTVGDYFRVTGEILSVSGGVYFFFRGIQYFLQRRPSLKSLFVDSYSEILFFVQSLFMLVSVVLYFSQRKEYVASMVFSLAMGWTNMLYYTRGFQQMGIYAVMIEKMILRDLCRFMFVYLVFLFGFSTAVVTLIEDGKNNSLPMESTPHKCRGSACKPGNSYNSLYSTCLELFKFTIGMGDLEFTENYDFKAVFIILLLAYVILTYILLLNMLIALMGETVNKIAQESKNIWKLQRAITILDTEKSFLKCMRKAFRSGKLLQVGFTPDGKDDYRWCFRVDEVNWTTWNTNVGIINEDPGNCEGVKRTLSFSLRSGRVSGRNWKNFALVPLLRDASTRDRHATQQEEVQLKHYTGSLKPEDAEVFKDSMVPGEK", "settings": "Wahl et al., Mol. Pharmacol., 59:9, 2001", "data": [{"compound": "C=C(C)[C@]12C[C@@H](C)[C@@]34O[C@](Cc5ccccc5)(O[C@@H]1[C@@H]3C=C(COC(=O)Cc1cc(I)c(O)c(OC)c1)C[C@]1(O)C(=O)C(C)=C[C@@H]41)O2", "note": "[iodo-resiniferatoxin]", "values": [{"measurement": "antagonist of VR1", "value": "nanomolar antagonist"}]}]}
